# Measurements as given in US11180523B2, “Design, synthesis and use of synthetic nucleotides comprising charge mass tags” (QuantuMDx Group Limited, priority 2016, dated 2021).
# Key:
# [1] = Photocleavage by irradiation with a mercury lamp, followed by LCMS; format: physicochemical; details: methanol and water, approximately 250 nm
# Description: For illustrative purpose, initial testing of 3-(hydroxymethyl)naphthalen-2-ol derivative was carried out. The molecule was dissolved in a mixture of methanol and water, and was then irradiated for 90 min with light from a mercury lamp, which emits light with a wavelength of approximately 250 nm. […] After a further 90 min, there was approximately 20% starting material remaining.
# In the experiments illustrated in FIG. 2, the molecule was dissolved in a mixture of methanol and water, and was then irradiated for 90 min with light from a mercury lamp, which emits light with a wavelength of approximately 250 nm. […] After a further 90 min, there was approximately 20% starting material remaining. […] The peak at 5 mins may be due to the diol being released.
# DNA polymerase [2] = details: single base incorporation; overnight, ambient temperature; FIG. 4
# Description: Sequencing reactions performed on bulk Si/SiO2 surfaces using both 3′ and 5′ surface tethered 30mer DNA, immobilised onto APDMES/PDC modified Si/SiO2 surface in the typical 4×4 array format. Here, Cy3 labelled dCTP was selectively incorporated to a hybridised primer using the covalently bound 30mer probe as a template. The reaction mix was spread over the silicon surface and incubated overnight in a dark humid chamber at ambient temperature. The silicon was then rinsed in 1× Thermopol buffer and dried using a nitrogen line. Fluorescence was visualised using an Olympus BX60 and imaged using Axio vision camera and Axiovision 3.1 software.
# It should be noted that each spot would contain a number of DNA strands where the primer extension has taken place and therefore the florescence observed is due to several Cy3 dCTP's not just one base.
# DNA polymerase [3] = assay: Real-time primer extension analysis (Rotorgene Q, SYBR Safe) with melt analysis; format: biochemical; details: single SC-TTP incorporation, compared with standard dNTPs; FIG. 3A
# From the text: As specified the linker chain can play an important role, at least in some embodiments, in enabling the nucleotide to remain a polymerase substrate, as such any modified nucleotides have to be shown to be biologically active. In order to exemplify this and as an example of certain embodiments, a polymerase reaction mix may be used for real-time primer extension analysis with Rotor Template, which requires the incorporation of a single SC-TTP nucleotide followed by a sequence of 44 dCTP, dGTP, dATP nucleotides.
# Primer extension reactions were monitored using the Rotorgene Q Real-time thermocycler, this allows primer extension to be monitored fluorescently using a dsDNA intercalator (SYBR Safe) with secondary melt analysis to provide further information on product composition. This method can be used with an oligonucleotide primer/template pair designed to allow complete extension of the primer with the incorporation of a single SC-TTP nucleotide. Initially, the experiment was be conducted with a 40° C. incubation and then repeated with a 65° C. incubation (optimum synthesis temperature for most commercial DNA Polymerases). Control reactions with standard dNTPs (positive control) and no dNTPs (negative control) were included, alongside a control(s) for mis-incorporation.
# DNA polymerase [4] = assay: Primer extension reaction analysed by PAGE gel; details: incubated at 40° C.; compared with the positive control reaction
# Description: Competitor oligos, complementary to the templates were also designed to aid gel analysis of a single stranded product. Primer extension reactions were conducted using the following reaction mix:
# Following incubated at 40° C. in a hot block reactions were terminated by the addition of a ‘stop buffer’ containing chelators to inhibit polymerase activity in addition to formamide and competitor oligo to encourage denaturation of the double stranded DNA duplex for electrophoresis.
smiles,measurement,setting,value
COC(COCc1ccccc1)NC(=O)OCc1cc2ccccc2cc1O (centres unmarked) [(3-Hydroxynaphthalen-2-yl)methyl (2-(benzyloxy)-1-methoxyethyl)carbamate],starting material remaining (LCMS),[1]; after a further 90 min irradiation,approximately 20%
same,consumption of the starting material (LCMS),[1]; irradiated for 90 min,50%
CCN1/C(=C/C=C/C2=[N+](CCCCCC(=O)NCC#Cc3cn(C4CC(O)C(COP(=O)([O-])OP(=O)([O-])OP(=O)([O-])[O-])O4)c(=O)nc3N)c3cc(S(=O)(=O)O)ccc3C2(C)C)C(C)(C)c2ccc(S(=O)(=O)[O-])cc21.[Li+].[Li+].[Li+].[Li+] (centres unmarked) [Cy3 labelled dCTP],fluorescence of printed array post-sequencing and wash steps,DNA polymerase [2],very weak fluorescence
"[N-]=[N+]=NC(COc1cccc(C(=O)NCCNC(=O)c2cc(C(=O)O)cc(C(=O)O)c2)c1)OCCOCC(=O)NCC#Cc1cn([C@H]2C[C@H](O)[C@@H](COP(=O)(O)OP(=O)(O)OP(=O)(O)O)O2)c(=O)[nH]c1=O (some centres unmarked) [SC-TTP, Penta-Triethylammonium Cleavable SCTTP]",maximum fluorescence intensity associated with incorporation (primer extension),DNA polymerase [3],slightly reduced
same,band shift on gel after primer extension,DNA polymerase [4],larger shift
